A short description of data set [1]: Equilibrium solubility of compound […] at pH 6.8 by high-throughput analysis. The format is physicochemical.
Data set [2] can be described thus: AUC in Sprague-Dawley rat at 3 mg/kg,po measured upto 24 hrs by LC-MS/MS analysis. The format is ADME, organism-based. To be noted: in vivo; for AUC at 24 h: Sprague-Dawley.
Data set [3] is described as follows: Inhibition of IL-6 production in IL-17/TNF-alpha stimulated human NHDF cells incubated for 24 hrs by ELISA. It counts as functional, cell-based. To be noted: 24 h. (In general: In an ELISA, binding on a coated surface is turned into a signal by an enzyme label.)
A short description of data set [4]: Oral bioavailability in Sprague-Dawley rat at 3 mg/kg measured upto 24 hrs by LC-MS/MS analysis. To be noted: in vivo; for bioavailability: Sprague-Dawley. It counts as ADME, organism-based.
Data set [5] can be described thus: Apparent permeability coefficient of the compound across apical to basolateral side in dog MDCK cells by high-throughput analysis. It counts as ADME, cell-based, Canis lupus familiaris.
Data set [6] can be described thus: Lipophilicity, logD of compound at pH 7.4. The format is physicochemical. To be noted: buffer.
Data set [7] is described as follows: Plasma clearance in Sprague-Dawley rat at 1 mg/kg,iv measured upto 24 hrs by LC-MS/MS analysis. It counts as ADME, organism-based.
The nature of data set [8]: Metabolic stability in human liver microsomes assessed as intrinsic clearance. It counts as ADME, Microsome. To be noted: read-out: CLH.
Data set [9] can be described thus: Metabolic stability in rat liver microsomes assessed as intrinsic clearance. The format is ADME, Microsome. To be noted: read-out: CLH.
A short description of data set [10]: Inhibition of biotinylated human IL-17A/AF647-labeled human IL-17RA protein-protein interaction preincubated for 30 mins with compound followed by addition of AF647-labeled human IL-17RA incubated for 90 min by TR-FRET assay.
Another data set has as its system Rattus norvegicus. Description: Antiarthritic activity in antigen-induced arthritis Lewis rat model assessed as reduction in knee swelling at 10 mg/kg,po bid administrated for 4 days. To be noted: time 4 day. The format is functional. More on the design: scale not given: the % may be the effect or the level left.
Data set [11] in a line: Hepatotoxicity in dog assessed as increase in serum liver enzyme at 50 mg/kg administration measured after 3 days. The format is toxicity, organism-based, Canis lupus familiaris. To be noted: in vivo, 72 h, time 3 day.

pIC50: −log10 of the molar value. In brackets after ≈: the same amount, converted by molar mass.

With `COC[C@H](c1cnn2cc([C@@H](NC(=O)/C(F)=C3\CCOC3)C3CCC(F)(F)CC3)nc2c1)N1C[C@@H](C(F)(F)F)NC1=O`, the solubility (in general, the dissolved amount per volume that the medium holds) in data set [1] is greater than 750 µM. Moreover, the AUC (in general, the area under the concentration-time curve, a measure of exposure) at 24 h in data set [2] was 0.08 µM·h. Moreover, the pIC50 (usually −log10 of the IC50, conventionally taken in molar units) in data set [3] is 7.47; in [10], 6.99. Also, the bioavailability (as a rule, the share of a dose that reaches the circulation, judged against a reference dose that is usually intravenous) in data set [4] was 4%. Moreover, in data set [5], the Papp A→B (as a rule, the apparent permeability from the apical to the basolateral side of a cell layer) came to 7.4 ×10⁻⁶ cm/s. The logD (usually the decadic logarithm of the distribution of all forms, ionised or not, between an organic phase and buffer at a given pH) in data set [6] was found to be 2.6. Further, the clearance (commonly the volume of plasma or blood freed of the substance per unit of time) in [7] came out at 42 mL/min/kg. Also, the results for the microsomal CLint in data set [8] and in [9] were 50 µL/min/mg and 321 µL/min/mg, respectively.
The compound `COC[C@H](c1cnn2cc([C@@H](Nc3nnc(C4CC4)o3)C3CCC(F)(F)CC3)nc2c1)N1C[C@@H](C(F)(F)F)NC1=O` came in with a solubility in [1] greater than 750 µM. This compound also registered an AUC at 24 h in data set [2] of 0.026 µM·h. Moreover, the results for the pIC50 in data set [3] and in data set [10] were 7.82 and 7.28, respectively. The bioavailability in [4] turned out to be 2.5%. Further, the Papp A→B in data set [5] was determined as 1.7 ×10⁻⁶ cm/s. This compound gave a pH-dependent lipophilicity (logD) in data set [6] of 2.7. In data set [7], the clearance turned out to be 86 mL/min/kg. In addition, the results for the microsomal CLint in data set [8] and in [9] were less than 25 µL/min/mg and 17 µL/min/mg, respectively.
In [1], `CC(F)(F)c1nnc(N[C@H](c2cn3ncc([C@@H](C4CC4)N4C[C@@H](C(F)(F)F)NC4=O)cc3n2)C2CCC(F)(F)CC2)o1` showed a solubility of 45 µM (≈ 27.2 µg/mL). In [2], this compound registered an AUC at 24 h of 0.569 µM·h. In addition, the results for the pIC50 in [3] and in data set [10] were 8.22 and 7.68, respectively. In addition, the bioavailability in [4] was determined as 41%. Besides, the results for the Activity (with Rattus norvegicus; in [11]) were 68% and “Toxic”, respectively. Moreover, in [5], the Papp A→B stood at 10 ×10⁻⁶ cm/s. Further, the logD in data set [6] is 3.9. This compound also gave a clearance in [7] of 56 mL/min/kg. Also, the microsomal CLint in [8] was 66 µL/min/mg; in [9], 37 µL/min/mg.
Turning to `COC[C@H](c1cnn2cc([C@@H](Nc3nnc(C(C)(F)F)o3)C3CCC(F)(F)CC3)nc2c1)N1C[C@@H](C(F)(F)F)NC1=O`, the solubility in data set [1] worked out at 400 µM (≈ 243 µg/mL). In data set [2] (po, 3 mg/kg, 24 h), the AUC amounted to 0.946 µM·h. Further, the pIC50 is 8.10 in [3] and 7.42 in data set [10]. In [4] (po, 3 mg/kg, 24 h), this compound displayed an F of 41%. In addition, the Activity in the data set with Rattus norvegicus was determined as 64%. Moreover, the Papp A→B in [5] worked out at 3.6 ×10⁻⁶ cm/s. The compound further yielded a logD in [6] of 3. Besides, the microsomal CLint stood at 37 µL/min/mg in data set [8] and 18 µL/min/mg in data set [9].

Values taken from ChEMBL document CHEMBL5579899, “Discovery and In Vivo Exploration of 1,3,4-Oxadiazole and α-Fluoroacrylate Containing IL-17 Inhibitors” (J Med Chem, 2024).
